Results reported in PMC12527173, “Cytotoxic, anti-inflammatory, antioxidant, and anti-glyoxalase-I evaluation of chelating substances: In silico and in vitro study” (PLOS One, 2025).
Read-outs that look alike come from different tables or passages of the source.

How the values were obtained:
[1] = biological target: T1, human recombinant Glo-I enzyme (rhGlo-I) (Homo sapiens, UniProt Q04760); design: method as in PMID 34264188; conditions: prior publication ref 87; read-out: IC50 against Glo-I; cited from earlier work
T1 construct: N-terminal Met and 6-His tag (N); purchased R&D Systems; host or cells: E. coli
T1 sequence (Q04760 2-184 limits assumed): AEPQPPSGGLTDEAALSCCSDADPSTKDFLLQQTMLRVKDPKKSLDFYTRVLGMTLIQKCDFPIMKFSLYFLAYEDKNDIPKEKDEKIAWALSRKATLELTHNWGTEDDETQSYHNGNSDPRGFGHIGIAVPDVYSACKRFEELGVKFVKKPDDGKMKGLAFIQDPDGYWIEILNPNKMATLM

[2] = tested on: CACO2 colorectal cancer cell line; assay: SRB cytotoxicity assay, CACO2; type: cell-based; conditions: Homo sapiens, Caco-2, 72 h incubation, n = 12, read-out: Cytotoxicity (as of %Control) IC50 value CACO2
Method: (§1) The cancer cell lines were cultured in DMEM supplemented with 10% FBS (Bio Whittaker, Verviers, Belgium), HEPES Buffer (10 mM), gentamicin (50 µg/mL), L-glutamine (100 μg/mL), streptomycin ([…]), penicillin (100 µg/mL), and 4-(2-hydroxyethyl)-1-piperazineethanesulfonic acid (HEPES) Buffer (Sigma, St. Luis, MO, USA). The Sulforhodamine B used was obtained from Santa Cruz Biotechnology, Inc. in Texas, USA. […] Periodontal ligament fibroblasts (PDL) were utilized to assess specific cytotoxicity. Cancer cell lines that have survived offer several benefits. They provide a consistent and uninterrupted source of cells, so bypassing any ethical concerns related to the use of human tissue. Additionally, they are cost-effective. The cytotoxicity levels were assessed using the Sulforhodamine B (SRB) colorimetric assay, provided by Santa Cruz Biotechnology, Inc. in Texas, USA. The Spectro Scan 80D UV-VIS spectrophotometer, manufactured by Sedico Ltd. in Nicosia, Cyprus, was employed for this cytotoxicity screening. The cells were co-incubated with substances or a reference agent at various doses ranging from 5 to 200 μg/mL. […] The reduction in cell viability was analyzed by plotting Dose-response curves and expressing the data as a percentage of the control optical density. The IC50 values were obtained using regression analysis.

[3] = tested on: SW480 colorectal cancer cell line; assay: SRB cytotoxicity assay, SW480; type: cell-based; conditions: Homo sapiens, 72 h incubation, n = 12, read-out: Cytotoxicity (as of %Control) IC50 value SW480
Method: as §1

[4] = tested on: HCT116 colorectal cancer cell line; assay: SRB cytotoxicity assay, HCT116; type: cell-based; conditions: Homo sapiens, HCT-116, 72 h incubation, n = 12, read-out: Cytotoxicity (as of %Control) IC50 value HCT116
Method: as §1

[5] = tested on: SW620 colorectal cancer cell line; assay: SRB cytotoxicity assay, SW620; type: cell-based; conditions: Homo sapiens, SW-620, 72 h incubation, n = 12, read-out: Cytotoxicity (as of %Control) IC50 value SW620
Method: as §1

[6] = tested on: HT-29 colorectal cancer cell line; assay: SRB cytotoxicity assay, HT29; type: cell-based; conditions: Homo sapiens, 72 h incubation, n = 12, read-out: Cytotoxicity (as of %Control) IC50 value HT29
Method: as §1

[7] = tested on: PANC1 pancreatic cell line; assay: SRB cytotoxicity assay, PANC1; type: cell-based; conditions: Homo sapiens, PANC-1, 72 h incubation, n = 12, read-out: Cytotoxicity (as of %Control) IC50 value PANC1
Method: as §1

[8] = SRB cytotoxicity assay, normal PDL fibroblasts; type: cell-based; conditions: normal periodontal ligament (PDL) fibroblasts, 72 h incubation, 0.1–200 µM range, read-out: Cytotoxicity (as of %Control) IC50 value PDL fibroblasts
Method: as §1

[9] = tested on: A375 human skin cancer cell line; assay: SRB cytotoxicity assay, A375; type: cell-based; conditions: A-375, 72 h incubation, n = 12, read-out: Cytotoxicity (as of %Control) IC50 value A375 skin melanoma
Method: as §1

[10] = tested on: A549 lung cancer cell line; assay: SRB cytotoxicity assay, A549; type: cell-based; conditions: Homo sapiens, 72 h incubation, n = 12, read-out: Cytotoxicity (as of %Control) IC50 value A549 lung malignancy
Method: as §1

[11] = tested on: Human PC3 prostate cancer cell line; assay: SRB cytotoxicity assay, PC3; type: cell-based; conditions: 72 h incubation, n = 12, read-out: Cytotoxicity (as of %Control) IC50 value PC3 prostate malignancy
Method: as §1

[12] = tested on: Breast cancer cell line MCF7; assay: SRB cytotoxicity assay, MCF7; type: cell-based; conditions: Homo sapiens, 72 h incubation, n = 12, read-out: Cytotoxicity (as of %Control) IC50 value MCF7 mammary malignancy
Method: as §1

[13] = tested on: T47D breast cancer cell line; assay: SRB cytotoxicity assay, T47D; type: cell-based; conditions: Homo sapiens, 72 h incubation, n = 12, read-out: Cytotoxicity (as of %Control) IC50 value T47D mammary malignancy
Method: as §1

[14] = tested on: HeLa uterine cervix adenocarcinoma cell line; assay: SRB cytotoxicity assay, HeLa; type: cell-based; conditions: Homo sapiens, 72 h incubation, n = 12, read-out: Cytotoxicity (as of %Control) IC50 value Hela cervix malignancy
Method: as §1

[15] = DPPH free radical scavenger assay; conditions: DPPH radical scavenging; n = 12
Description: This approach relies on the reduction of the radicals, which causes a change in colour from oxidized purple to reduced yellow. Primarily, Diphenyl-2-picryl-hydrazyl (DPPH) is reduced in a solution of methanol (MeOH) when a chemical that donates hydrogen is present. This reduction is due to the creation of the non-radical form DPPH-H. The alteration in colour can be precisely assessed by employing a spectrophotometer within the wavelength range of 515–520 nm. Unlike other assays for radical scavenging, the DPPH radical is stable and yields consistent spectroscopic data. A 0.2 mM DPPH solution was diluted with MeOH and then combined with treatment compounds and ascorbic acid in a 1:1 concentration ratio using a 96-well plate. […] The solution was then incubated for one hour, isolated from light. Subsequently, the alteration in absorbance at a wavelength of 517 nm was quantified using a microplate reader manufactured by Bio-Tek Instrument in the United States. Ascorbic acid served as a strong and traditional benchmark for comparing the effectiveness of radical scavenging agents. The DPPH radical scavenging activity inhibition was calculated using the following equation, where A denotes photometric absorbance: The formula to calculate the percentage difference between a control and a sample is: (A control – A sample)/ A control x 100% [71, 72].

[16] = tested on: LPS-primed RAW 264.7 murine macrophages (nitrite / iNOS); assay: Anti-inflammatory (nitrite) determination in LPS-primed macrophages; type: cell-based; conditions: Mus musculus
Method: The RAW 264.7 mouse macrophage cell line (ATCC® TIB-71) was cultivated in high glucose DMEM with 10% foetal bovine serum (FBS), 100 U/mL penicillin, 100 μg/mL streptomycin, and 100 μg/mL L-glutamate. The cells were incubated at 37°C in a humidified environment with 95% air and 5% CO2. Confluent macrophages (2 x 10^5/well) were cultured with lipopolysaccharide (LPS; 20 μg/mL; Sigma, St. Luis, MO, USA) and indomethacin (25–200 μg/mL) as the positive control, along with various concentrations (5–200 μg/mL) of treatment compounds. The cells were incubated for 24 hours. 100 μL of Griess reagent were combined with 100 μL portions of cell culture medium and left to incubate at room temperature for 10 minutes. The absorbance at a wavelength of 550 nm was measured using a microplate reader, namely the Spectro Scan 80D UV-VIS spectrophotometer manufactured by Sedico Ltd. in Nicosia, Cyprus. The nitrite concentration was assessed by comparing it to a standard curve of sodium nitrite. A cytotoxicity protocol using SRB was conducted to assess the impact of the test substances under study on RAW 264.7 viability.

Row | SMILES | IC50 [1] | IC50 [2] | IC50 [3] | IC50 [4] | IC50 [5] | IC50 [6] | IC50 [7] | IC50 at 72 h [8] | IC50 [9] | IC50 [10] | IC50 [11] | IC50 [12] | IC50 [13] | IC50 [14] | IC50 [15] | IC50 ([16]; RAW264.7, 24 h, read-out: iNOS- IC50 value) | IC50 ([16]; RAW264.7, read-out: IC50, ability to reduce inflammation)
1 | C[C@H](Cc1ccc(O)c(O)c1)[C@@H](C)Cc1ccc(O)c(O)c1 [4,4’-((2R,3S)-2,3-dimethylbutane-1,4-diyl)bis(benzene-1,2-diol)] | 0.0365 µM |  |  |  |  |  |  |  |  |  |  |  |  |  |  |  | 
2 | O=c1c(O)c(-c2cc(O)c(O)c(O)c2)oc2cc(O)cc(O)c12 [Myricetin, reference compound] |  | 106.5 ± 0.6 µM | 88.9 ± 14.1 µM | 44.7 ± 2.14 µM | 42.8 ± 0.78 µM | 32.6 ± 1.06 µM | 198 ± 43 µM | > 200 µM | 51.7 ± 4.1 µM | 27.5 ± 4.47 µM | 65.4 ± 1.84 µM | 73 ± 0.78 µM | 29.8 ± 2.6 µM | 35.8 ± 4.4 µM | 70.7 ± 11.6 µM | 0.07 ± 0.01 µM | 0.05 µM
